Reference: patent publication US20080219962A1, “Method to Enhance the Bone Formation Activity of Bmp by Runx2 Acetylation” (BIORUNX CO., LTD., priority 2005, published 2008)
Numbered stars: 1 amine (or outer) side, 2 acyl side, 3 side chain; on linkers, the order of the positions; unused ones are H or OH. Bridge positions count the residues as written; N and C are the ends. Square brackets hold non-standard residues; d marks the D form. Peptide text beside a SMILES is read from it. I, II: the chains in the order shown. ξ: configuration not given here. hNle(7-SH) = O=C([C@H](CCCCCS[*:3])N[*:1])[*:2]; Ile(3ξ) = CCC(C)[C@H](N)C(=O)O

Key:
Runx2 = Runx2 acetylation: immunoprecipitation with anti-acetyl-lysine antibody, Western blot with anti-myc antibody; assay type: cell-based; details: C2C12 cells transfected with myc-tagged Runx2, treated with HDAC inhibitor; FIG. 13
Experimental: Following transfection, the C2C12 and 293 cells were lysed in ice-cold cell lysis buffer (25 mM HEPES (pH 7.5), 150 mM NaCl, 1% NP-40, 0.25% Na deoxycholate, 10% glycerol, 25 mM NaF, 1 mM EDTA, 1 mM Na3VO4, 250 μM phenylmethylsulfonyl fluoride, 10 μg/ml leupeptin, 10 μg/ml aprotinin) and cleared by centrifugation. The resulting supernatants were immunoprecipitated with the appropriate primary and secondary antibodies, and protein A- or protein G-Sepharose beads (Amersham) for 4 hours. All incubations were conducted at 4° C. The Sepharose beads were washed extensively and bound proteins were separated using SDS-PAGE, and then transferred to PVDF membranes. The membranes were incubated with the appropriate antibodies, washed, and then incubated with horseradish peroxidase-coupled secondary antibodies. After washing, the reactive proteins were visualized with an enhanced chemiluminescence (ECL) reagent (Amersham Biosciences).
For HDAC inhibitor treatments, both C2C12 and 293 cells were cultured in fresh medium for 1 day following transfection, and then treated with the inhibitors (Tricostatin A (TSA), CHAP and SCOP) for 16 h, at the specified concentrations according to the methods of Komatsu et al (Cancer Res. 61:4459-4466, 2001) and Nishino et al (Nishino N. et al., Org. Lett. 5: 5079-5082, 2003).
The level of Runx2 acetylation might be controlled by a dynamic equilibrium between acetylation and deacetylation. […] In the present invention, inhibitors of histone diacetylase (HDAC) deacetylating most proteins were treated to Runx2. Particularly, C2C12 cells, transfected with myc-tagged Runx2, were treated with HDAC inhibitors such as SCOP304, SCOP152, CHAP27, SAHA, MS-275, FK228, TrafoxinB and Oxamflatin according to the method of Komatsu et al (Cancer Res. 61:4459-4466, 2001). Immunoprecipitation was performed using anti-acetyl-lysine antibody, followed by Western blot analysis using anti-myc antibody.

[1] = test system: Runx2 transcriptional activity; assay: pGL3-TβRE-luc luciferase reporter assay in 293 cells over-expressing Runx2; assay type: cell-based; details: 293 cells over-expressing Runx2 and pGL3-TβRE-luc reporter; FIG. 16
Experimental: (§1) For luciferase assay, cells were plated on a 24-well plate one day before transfection, followed by co-transfection with luciferase reporter plasmid and numbers of Runx2 constructs. 36 hours after transfection, cells were recovered and luciferase and β-galactosidase activities were measured in cell lysate by using Luciferase Reporter Assay Kit (Promega) using luminometer according to the manufacturer's recommendations. The pCMVβ-Gal (beta-Galactosidase, Clontech Laboratory) plasmid was included as an internal control to determine the efficiency of transfection.
To examine whether HDAC inhibitors, increasing the level of Runx2 acetylation, could promote the Runx2 transcriptional activity, 293 cells over-expressing Runx2 and pGL3-TβRE-luc reporter were treated with each HDAC inhibitor. The transcriptional activity of Runx2 was evaluated by luciferase report assay, which was performed according to the manufacturer (Promega)'s instructions. As a result, HDAC inhibitors, Tubacin, SAHA, MS-275, Trafoxin B, Oxamflatin, CHAP27, CHAP31, SCOP152, SCOP304 and SCOP402, increased transcriptional activity of Runx2 (FIG. 16). From the result, it was confirmed that HDAC inhibitors not only increase the level of Runx2 acetylation but also increase the Runx2 transcriptional activity.

[2] = test system: C2C12 pluripotent mesenchymal precursor cells; assay: Alkaline phosphatase (ALP) activity staining, early marker of osteoblast differentiation; assay type: cell-based; details: increasing inhibitor concentration in presence of low concentration of BMP-2 (30 ng/ml), FIG. 18
Experimental: Particularly, C2C12 pluripotent mesenchymal precursor cells were treated with each HDAC inhibitor and then fixed with 3.7% formaldehyde for 10 minutes, to which western blue substrate (Promega) was added to induce color development for 10 minutes. And alkaline phosphatase (ALP) activity, an early marker of osteoblast differentiation was measured by the active staining method (Katagiri et al., J. Cell Biol. Vol. 127, 1755-66, 1994). As a result, the treatment of HDAC inhibitors such as TSA, SAHA, MS-275, FK228, Oxamflatin, CHAP27, SCOP152, SCOP304 and SCOP402 caused increase of ALP activity (FIG. 18).

OC promoter = assay: Osteocalcin (OC) promoter luciferase reporter assay in H1-127-21-2 cells; assay type: cell-based, mouse; details: H1-127-21-2 cells over-expressing pCS4-3Myc-Runx and pGL2-1050 OC-luc; FIG. 19
Source text: Full-length Runx2 (SEQ. ID. No 2) labeled with Myc or HA was inserted into a vector to construct CMV promoter-derived mammalian expression vectors pCS4-3Myc and pCS4-3HA (Jin et al., J Biol Chem. Vol. 279, 29409-17, 2004, Ogawa et al., Proc Natl Acad Sci USA. 1993 Vol. 90, 6859-63.). Mutations affecting the Runx2 acetylation site were introduced by PCR (Michaels A. Innis et al., PCR protocols: a guide to method and applications, Qcademic Press, Inc., 1990) and cloned into the pCS4-3Myc vector. The BMP receptor 1 (BMPR1) and HA-p300 expression vectors were obtained from M. Ewen (Dana-Farber Cancer Institute, Harvard Medical School, Boston) (Genes Dev. Vol. 8, 869-84, 1994). The expression plasmids for the myc-HDAC series were cloned into pCS4-3Myc. The luciferase reporter plasmid, pGL3-TbRE, contains two copies of TbRE (originally identified in the immunoglobulin Cα promoter) (Lee, K. S., et al., Mol. Cell. Biol. 20:8783-8792, 2000; pGL3 is product of Promega). […]
as §1, with “The pCMVβ-Gal (beta-Galactosidase, Clontech Laboratory) plasmid was included as an internal control to determine the efficiency of transfection.” left out

[3] = test system: periosteal bone formation; assay: Periosteal bone formation after hypodermic injection into mice calvarias, H&E histostaining; assay type: in vivo; details: 10 μl of 60 μM injected hypodermically into calvarias, two weeks, FIG. 22
Experimental: To confirm the effect of HDAC inhibitors on bone formation, the present inventors investigated the effect of CHAP27, SCOP402 and SCOP304 on periosteal bone formation in rodent. Particularly, 10 μl of HDAC inhibitors (60 μM) were hypodermically injected into mice calvarias (Zhao et al., J. Biol. Chem., 279, 12854-12859, 2004). Two weeks later, the mice were sacrificed, followed by hematoxyline & eosine histostaining (Cell Biology. Second edition, Edited by Julio E. Celis. Published by Academic Press, 1994).

Row | Molecule | Runx2 acetylation (Runx2) | transcriptional activity of Runx2 (luciferase reporter) [1] | ALP activity [2] | OC promoter activation over the activation observed for Runx2 alone (OC promoter) | bone formation [3]
1 | cyclo(-L-Am7-D-Tyr(Me)-L-Ile-D-Pro-) [SCOP152] | increased | increased | increase |  | 
2 | C/C=C1\NC(=O)[C@H]2CSSCC/C=C/[C@H](CC(=O)N[C@H](C(C)C)C(=O)N2)OC(=O)[C@H](C(C)C)NC1=O [FK228] | increased |  | increase |  | 
3 | CCC(C)[C@@H]1NC(=O)[C@H]2CCCN2C(=O)[C@H](CCCCCSSCCCCC[C@@H]2NC(=O)[C@H]3CCCN3C(=O)[C@H](C(C)CC)NC(=O)[C@@H](Cc3ccc(OC)cc3)NC2=O)NC(=O)[C@@H](Cc2ccc(OC)cc2)NC1=O (stereo partly drawn) [SCOP304, cyclo(L-Am7 (−)-D-Tyr(Me)-L-Ile-D-Pro)dimer] (I: cyclo([Ile(3ξ)][dP][hNle(7-SH)][dY](Me)) / II: cyclo([Ile(3ξ)][dY](Me)[hNle(7-SH)][dP]); disulfide I:3-II:3) | increased | increased | increase | 2-4 fold | remarkably enhanced
4 | O=C(CCCCCCC(=O)Nc1ccccc1)NO [SAHA, octanediamide, N-hydroxy-N′-phenyl-] | increased | increased | increase |  | 
5 | cyclo(-L-Asu(NHOH)-D-Tyr(Me)-L-Ile-D-Pro-) [CHAP31] |  | increased |  |  | 
6 | O=C(CCCCCCC(=O)Nc1ccc([C@H]2O[C@@H](CSc3nc(-c4ccccc4)c(-c4ccccc4)o3)C[C@@H](c3ccc(CO)cc3)O2)cc1)NO [Tubacin] |  | increased |  |  | 
7 | CC(/C=C/C(=O)NO)=C\[C@@H](C)C(=O)c1ccc(N(C)C)cc1 [TSA, 2,4-heptadieneamide, 7-[4-(dimethylamino)phenyl]-N-hydroxy-4,6-dimethyl-7-oxo-, (2E,4E,6R)-] |  |  | increase |  | 
8 | Nc1ccccc1NC(=O)c1ccc(CNC(=O)OCc2cccnc2)cc1 [MS-275, carbamate, [[4-[[(2-aminophenyl)amino]carbonyl]phenyl]methyl]-, 3-pyridinemethyl ester] | increased | increased | increase |  | 
9 | Oxamflatin | increased | increased | increase |  | 
